Test results from patent US20250114462A1, “HYDROPHILIC FUNCTIONALIZED PARTICLES IN THE DELIVERY OF HYDROPHOBIC DRUGS” (NEW JERSEY INSTITUTE OF TECHNOLOGY, priority 2023, published 2025).

Test: In vitro dissolution profile (USP-42 paddle method)
Type: physicochemical
Conditions: for 50% dissolution time (T50): composites with 0.5 to 1.0% of HFP
Procedure: Dissolution measurements were carried out using USP-42 paddle method with Symphony 7100 Distek dissolution instrument. Agilent 8453 model UV-Visible spectrophotometer was used at a wavelength at 295.0 nm for the reference drug Griseofulvin standard absorbance measurements that calibrated to measure the formulation polymer incorporated drugs concentration and dissolution percentage estimation.

## COc1ccc(-n2nc(C(N)=O)c3c2C(=O)N(c2ccc(N4CCCCC4=O)cc2)CC3)cc1 [Apixaban (APX), apixaban]
  Initial dissolution rate: 74.3 µg/min

## COC1=CC(=O)C[C@@H](C)[C@]12Oc1c(Cl)c(OC)cc(OC)c1C2=O [Griseofulvin (GF), griseofulvin]
  Initial dissolution rate: 110.3 µg/min
  50% dissolution time (T50): 40

## CC(=O)O[C@]1(C(C)=O)CC[C@H]2[C@@H]3C=C(C)C4=CC(=O)CC[C@]4(C)[C@H]3CC[C@@]21C [Megestrol Acetate (MA), megestrol acetate]
  Initial dissolution rate: 84.1 µg/min
  50% dissolution time (T50): 138
